Data: ChEMBL document CHEMBL1157293, “Sylviside, a diterpene glucoside derivative from Gnaphalium sylvaticum” (J Nat Prod, 2006)

Experiments:
HeLa [1] = assay: Cytotoxicity against wild type human HeLa cells by MTT assay; format: functional, cell-based
HeLa [2] = assay: Cytotoxicity against MDR1-G185 overexpressing human HeLa cells by MTT assay; format: functional, cell-based

C=C1[C@@H]2CC[C@H]3[C@]4(C)C[C@H](O[C@@H]5O[C@H](CO)[C@@H](O)[C@H](O)[C@H]5OC(=O)/C(C)=C\C)CC(C(=O)O)(C(=O)O)[C@H]4CC[C@]3(C2)[C@H]1O [SYLVISIDE]
IC50 (HeLa [1]): 325 µM | IC50 (HeLa [2]): 1700 µM
